Experiments:
Human TLR7/8 = experiment: Human PBMC cell-based assay, TLR7/8 stimulus (RNA-Ig), cytokine ELISA; conditions: primary human PBMC assay, TLR7/8 potency; ligand not given; read-out: Human PBMCs IC50
Description: Human PBMC Cell-Based Assay. Human peripheral blood mononuclear cells (PBMC) were isolated from freshly-drawn heparinized (10 USP units/ml, Hospira, Lakeforest, Ill.) healthy donor whole blood by density gradient (Histopaque® 1077, Sigma, Inc., St. Louis, Mo.). Briefly, 25 ml blood was diluted with 15 ml PBS (without Ca^2+, Mg^2+) in a 50 ml conical tube, and 12 ml Histopaque was underlaid using a spinal needle. Tubes were centrifuged for 45 minutes at 1200 rpm (350×g), and PBMC were collected from the buffy coat. Cells were then washed twice in PBS, and red blood cells were lysed by suspension in 5 ml ammonium chloride solution (1× Red Blood Cell Lysis Buffer, eBioscience) for 5 minutes at room temperature. After a final wash in PBS, PBMC were resuspended at a final concentration of 2×10^6/ml in RPMI-1640 media with L-glutamine (Invitrogen) and supplemented with 25 mM HEPES (Mediatech, Inc, Manassas Va.), 10% fetal bovine serum (HyClone, Logan, Utah), and Penicillin-Streptomycin-Glutamine (Mediatech) and plated at 100 ul/well (2×10^5 cells/well) in tissue culture treated 96-well plates (Falcon).
Antagonist compounds solubilized and serial diluted in 100% DMSO were added in triplicate to cells to yield a final concentration of 0.1% DMSO (v/v). Hydroxychloroquine (Acros Organics) solubilized and serial diluted in PBS was added in triplicate to cells. PBMC were incubated with antagonist compounds or HCQ for 30 minutes at 37° C., 5% CO2 before adding various TLR agonist reagents in 100 ul complete media per well as follows (final concentrations indicated): R848 (Resiquimod; GLSynthesis, Worcester, Mass.) at 1 uM for TLR7 and TLR8, LPS (Sigma) at 10 ng/ml for TLR4, and CpG-2216 (InvivoGen) at 5 ug/ml for TLR9. To prepare a TLR7/8 agonist that mimics RNA-containing auto-antibody immune complexes in lupus patients, a 26-mer RNA with a sequence derived from human U1 snRNA stem loop IV [(sequence: […]-[…] (SEQ ID NO: 2) with phosphorothioate backbone] was synthesized (Dharmacon, Inc., Lafayette, Colo.), which has been shown previously to be a potent TLR7 and TLR8 agonist. This RNA molecule was diluted to 2.5 μM in serum-free RPMI, and mouse anti-human single stranded DNA monoclonal antibody (MAB3034, Millipore, Inc., Billerica, Mass.), which also cross-reacts with RNA, was added at a 1:25 dilution or at 1 ug/ml. The resulting “RNA-Ig” stimulus was incubated at room temperature for 15-30 minutes before adding to cells. PBMC were incubated with the various TLR agonists for 20 hours at 37° C., 5% CO2. Cell culture supernatants were collected, and levels of various human cytokines were assessed as indicated by standard ELISA procedure according to the manufacturer's recommended protocol (BD Biosciences, Inc., San Diego, Calif.). In a subsequent assay (Table 6) the ability of ER-899742 to block stimulation of normal PBMC by various TLR7/8 ligands, but not DNA-mediated activation of TLR9, was examined. In this assay cells were plated at 1×10^5 cells/well in 100 ul in 96-well plates.

mouse TLR7 = target: T1, mouse TLR7 (Mus musculus, UniProt P58681); experiment: Short-term in vivo (STIV) assay: oral dosing, R848 s.c., plasma IL-6; set-up: female BALB/c mice (Jackson Labs, Bar Harbor, Me.) were dosed by oral gavage; tissue Jackson Labs; host or cells: living female BALB/c mice; plasma IL-6 after s.c. R848
T1 sequence (P58681 27-1050): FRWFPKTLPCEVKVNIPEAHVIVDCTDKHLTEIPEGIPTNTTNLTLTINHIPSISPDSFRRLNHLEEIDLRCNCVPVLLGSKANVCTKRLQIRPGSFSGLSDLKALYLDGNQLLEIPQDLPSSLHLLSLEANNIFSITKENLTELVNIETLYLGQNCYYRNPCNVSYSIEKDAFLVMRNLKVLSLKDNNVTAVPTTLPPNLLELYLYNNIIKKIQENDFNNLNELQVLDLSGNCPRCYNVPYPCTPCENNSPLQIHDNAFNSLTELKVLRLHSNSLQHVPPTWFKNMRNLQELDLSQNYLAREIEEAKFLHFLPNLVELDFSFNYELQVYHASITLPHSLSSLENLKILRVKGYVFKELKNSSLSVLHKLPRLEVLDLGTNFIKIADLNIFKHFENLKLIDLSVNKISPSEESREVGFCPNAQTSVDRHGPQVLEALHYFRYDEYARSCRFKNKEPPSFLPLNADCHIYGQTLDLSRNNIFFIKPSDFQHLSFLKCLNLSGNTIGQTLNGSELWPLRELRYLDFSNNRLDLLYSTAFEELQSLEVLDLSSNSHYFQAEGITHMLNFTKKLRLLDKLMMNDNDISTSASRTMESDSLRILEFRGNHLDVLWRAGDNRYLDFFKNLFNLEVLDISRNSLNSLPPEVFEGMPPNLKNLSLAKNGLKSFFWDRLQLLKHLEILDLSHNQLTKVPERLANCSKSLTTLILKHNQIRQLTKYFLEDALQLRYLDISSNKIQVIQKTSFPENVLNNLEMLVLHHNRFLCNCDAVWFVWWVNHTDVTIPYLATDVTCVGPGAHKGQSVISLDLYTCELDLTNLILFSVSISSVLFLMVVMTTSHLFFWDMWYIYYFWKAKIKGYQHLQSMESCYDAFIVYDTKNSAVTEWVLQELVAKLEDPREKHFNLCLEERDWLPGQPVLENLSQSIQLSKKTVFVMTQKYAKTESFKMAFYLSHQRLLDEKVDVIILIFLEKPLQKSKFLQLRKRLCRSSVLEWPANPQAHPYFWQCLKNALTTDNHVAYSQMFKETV
Description: Figure Legend: Female BALB/c mice were dosed by oral gavage with Vehicle alone (0.5% aqueous methyl-cellulose) or compound formulated in Vehicle at 33 mg/kg, 100 mg/kg or 300 mg/kg. […] (FIG. 1A).
Short-term in vivo (STIV) assay: To assess compound potency in vivo against mouse TLR7, a short-term in vivo (STIV) assay was utilized. Briefly, mice were orally dosed with compounds and at various time points afterwards were injected subcutaneously with agonist R848 to stimulate TLR7. The plasma IL-6 level following R848 stimulation was then measured by ELISA to assess compound potency and duration-of-action.
Short-term in vivo (STIV) assay. Six to eight week old female BALB/c mice (Jackson Labs, Bar Harbor, Me.) were dosed by oral gavage in 200 ul volume with antagonist compounds formulated in 0.5% aqueous methyl-cellulose (Sigma, St. Louis, Mo.). At various time points afterwards, mice were injected subcutaneously (s.c.) in 100 ul volume with 15 ug R848 (Resiquimod; GLSynthesis, Worcester, Mass.) to stimulate TLR7.

SMILES | IC50 (Human TLR7/8) [nM] | also measured
CC1CCC(NCC2CN(c3ccc(C#N)c4ncccc34)CC(C)O2)CC1 (mixture of isomers) [ER-887442] | 47 | –
N#Cc1ccc(N2CCOC(CCl)C2)c2cccnc12 (centres unmarked) [ER-879570] | 113 | –
CC(=O)NC[C@H]1CN(c2ccc(C#N)c3ncccc23)C[C@@H](C)O1 [ER-879689] | 1240 | –
C[C@@H]1CN(c2ccc(C#N)c3ncccc23)C[C@H](CN)O1 [ER-884884] | 204 | –
CCOCC1CN(c2ccc(C#N)c3ncccc23)CC(C)O1 (centres unmarked) [ER-885807] | 331 | –
CCC[C@H]1CN(c2ccc(C#N)c3ncccc23)C[C@@H](C)O1 [ER-886131] | 98 | –
C[C@H]1CN(c2ccc(C#N)c3ncccc23)C[C@@H](CF)O1 [ER-886133] | 127 | –
C[C@H]1CN(c2ccc(C#N)c3ncccc23)C[C@@H](CCl)O1 [ER-886134] | 277 | –
CC(C(=O)NC[C@H]1CN(c2ccc(C#N)c3ncccc23)C[C@@H](C)O1)c1ccccc1 (some centres unmarked) [ER-886360] | 486 | –
Cc1ccc(OC[C@H]2CN(c3ccc(C#N)c4ncccc34)C[C@@H](C)O2)cc1 [ER-886516] | 56 | –
C[C@@H]1CN(c2ccc(C#N)c3ncccc23)C[C@H](COc2ccc(F)c(F)c2)O1 [ER-886605] | 21 | –
C[C@@H]1CN(c2ccc(C#N)c3ncccc23)C[C@H](COc2cccc(F)c2)O1 [ER-886606] | 15 | –
Cc1nc2cc(NC[C@H]3CN(c4ccc(C#N)c5ncccc45)C[C@@H](C)O3)ccc2n1C [ER-886608] | 1 | –
CCn1c(C)nc2cc(NC[C@H]3CN(c4ccc(C#N)c5ncccc45)C[C@@H](C)O3)ccc21 [ER-886609] | 4 | –
C[C@@H]1CN(c2ccc(C#N)c3ncccc23)C[C@H](CNC2CCCCC2)O1 [ER-886611] | – | % Suppression vs. Vehicle (mouse TLR7; 3 h, 33 mg/kg): 90%; % Suppression vs. Vehicle (mouse TLR7; 3 h, 100 mg/kg): 100%; % Suppression vs. Vehicle (mouse TLR7; 3 h after oral dose, 11 mg/kg): 53%; % Suppression vs. Vehicle (mouse TLR7; 6 h, 11 mg/kg): 0%; % Suppression vs. Vehicle (mouse TLR7; 6 h, 33 mg/kg): 90%; % Suppression vs. Vehicle (mouse TLR7; 6 h, 100 mg/kg): 100%; % Suppression vs. Vehicle (mouse TLR7; 19 h, 11 mg/kg): 19%; % Suppression vs. Vehicle (mouse TLR7; 19 h, 33 mg/kg): 0%; % Suppression vs. Vehicle (mouse TLR7; 19 h, 100 mg/kg): 100%

— patent USRE47193E1, “Selectively substituted quinoline compounds” (EISAI R&D MANAGEMENT CO., LTD., priority 2013, dated 2019)
